Test results from patent publication US20060069132A1, “Azolecarboxamide herbicides” (priority 2004, published 2006).

Columns and labels:
Experiment in all cases: Test C postemergence herbicide test
chickweed = format: in vivo, Stellaria media; conditions: for Chickweed plant response rating: 500 g ai/ha
Description: At the same time, plants selected from these crop and weed species and also winter barley (Hordeum vulgare L.), blackgrass (Alopecurus myosuroides Huds.), canarygrass (Phalaris minor Retz.), chickweed (Stellaria media (L.) Vill.), downy bromegrass (Bromus tectorum L.), green foxtail (Setaria viridis (L.) Beauv.), Italian ryegrass (Lolium multiflorum Lam.), wheat (Triticum aestivum L.), wild oat (Avenafatua L.) and windgrass (Apera spica-venti (L.) Beauv.) were treated with postemergence applications of some of the test chemicals formulated in the same manner. Plants ranged in height from 2 to 18 cm (1- to 4-leaf stage) for postemergence treatments. Plant species in the flooded paddy test consisted of rice (Oryza sativa), smallflower umbrella sedge (Cyperus difformis L.), ducksalad (Heteranthera limosa (Sw.) Willd.) and barnyardgrass (Echinochloa crus-galli (L.) Beauv.) grown to the 2-leaf stage for testing. Treated plants and controls were maintained in a greenhouse for 12 to 14 days, after which time all species were compared to controls and visually evaluated. Plant response ratings, summarized in Table C, are based on a scale of 0 to 100 where 0 is no effect and 100 is complete control. A dash (-) response means no test result.

winter barley = format: in vivo, Hordeum vulgare
Procedure, shortened: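 Postemergence sprays were applied to plants 2 to 18 cm tall (1- to 4-leaf stage); in the flooded paddy test, barnyardgrass was grown to the 2-leaf stage. After 12 to 14 days in a greenhouse, injury was visually rated against untreated controls on a 0–100 scale (100 = complete control).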

wheat = format: in vivo, Triticum aestivum
Procedure, shortened: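 Scoring by eye, 12–14 days post-treatment, greenhouse-held plants vs. controls; 0 no effect, 100 complete control. Sprayed at 1–4 leaves (2–18 cm); paddy barnyardgrass at 2 leaves, flooded.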

[1] = Postemergence, 125 g ai/ha, scale 0 to 100, 0 no effect, 100 complete control
[2] = Postemergence, 250 g ai/ha, scale 0 to 100, 0 no effect, 100 complete control
[3] = postemergence, 62 g ai/ha, scale 0 to 100
[4] = Postemergence, 500 g ai/ha, scale 0 to 100
[5] = postemergence, 62 g ai/ha, scale 0 to 100 (0 no effect, 100 complete control)
[6] = postemergence, 125 g ai/ha, scale 0 to 100
[7] = Postemergence, 500 g ai/ha, scale 0 to 100, 0 no effect, 100 complete control
[8] = postemergence, 31 g ai/ha, scale 0 to 100

| Compound | Plant response rating, Chickweed (chickweed; [2]) | Plant response rating, Chickweed (chickweed; [3]) | Chickweed plant response rating (chickweed; Postemergence, scale 0 to 100) | Plant response rating, Barley, Winter (winter barley; [1]) | Plant response rating, Barley, Winter (winter barley; [2]) | Plant response rating, Barley, Winter (winter barley; [5]) | Plant response rating, Wheat (wheat; [2]) | Plant response rating, Wheat (wheat; [6]) | Plant response rating, Wheat (wheat; [3]) | Plant response rating, Chickweed (chickweed; [6]) | other results |
| --- | --- | --- | --- | --- | --- | --- | --- | --- | --- | --- | --- |
| CCn1nc(C(C)(C)C)cc1C(=O)Nc1cccc(C(=O)NC2CC2)c1 [Compound 44] | 90 | 90 |  |  |  |  |  |  |  |  | Plant response rating, Chickweed (chickweed; [1]): 90 |
| C=Cn1nc(C(C)(C)C)cc1C(=O)Nc1cccc(C(=O)N(CC)CC)c1 [Compound 34] | 60 |  | 100 |  |  |  |  |  |  |  | Plant response rating, Chickweed (chickweed; [1]): 50 |
| CCn1nc(C2(C)CC2)cc1C(=O)Nc1cc(C(=O)N2CC=CC2)ccc1F [Compound 301] |  |  |  | 30 | 30 | 30 | 55 | 45 | 40 |  | Barley, Winter plant response rating (winter barley; [4]): 40; Wheat plant response rating (wheat; [4]): 40 |
| CCNC(=O)c1cccc(NC(=O)c2cc(C(C)(C)C)nn2CC(F)(F)F)c1 [Compound 31] | 100 | 90 |  |  |  |  |  |  |  |  | Plant response rating, Chickweed (chickweed; [1]): 90 |
| C=CCNC(=O)c1cccc(NC(=O)c2cc(C(C)(C)C)nn2C)n1 [Compound 318] | 10 | 0 | 80 |  |  |  |  |  |  | 0 |  |
| CCn1nc(C(C)(C)C)cc1C(=O)Nc1cccc(OS(=O)(=O)CC)c1 [Compound 408] |  |  |  | 30 | 35 | 30 |  | 30 | 30 |  | Barley, Winter plant response rating (winter barley; [4]): 40; Plant response rating, Wheat (wheat; [7]): 40 |
| CCc1nc(C(C)(C)C)sc1C(=O)Nc1cccc(C(=O)NCC2CC2)c1 [Compound 212] | 80 | 60 | 100 |  |  |  |  |  |  | 80 |  |
| CCn1nc(C(C)(C)C)cc1C(=O)Nc1cc(OC(F)(F)F)ccc1F [Compound 338] |  |  |  | 30 | 35 | 20 | 35 | 25 | 25 |  | Barley, Winter plant response rating (winter barley; [4]): 40; Plant response rating, Wheat (wheat; [7]): 45 |
| CCCCOc1cccc(NC(=O)c2cc(C(C)(C)C)nn2CC)c1 [Compound 137] |  |  |  | 20 | 20 | 10 | 30 | 30 | 30 |  | Barley, Winter plant response rating (winter barley; [4]): 30; Wheat plant response rating (wheat; [4]): 40 |
| CCOC(=O)c1cccc(NC(=O)c2cc(C3(C)CC3)nn2CC)c1 [Compound 295] | 100 | 100 |  | 35 | 35 | 35 | 45 | 45 | 45 | 100 | Plant response rating, Barley, Winter (winter barley; [8]): 35; Plant response rating, Chickweed (chickweed; [8]): 85 |
| CCOC(=O)c1cccc(NC(=O)c2cc(C(C)(C)C)nn2CC)c1 [Compound 80, ethyl 3-[[[3-(1,1-dimethylethyl)-1-ethyl-1H-pyrazol-5-yl]carbonyl]-amino]benzoate] | 100 | 100 |  |  |  |  |  |  |  | 100 | Plant response rating, Chickweed (chickweed; [8]): 90 |
| CCn1nc(C(C)(C)C)cc1C(=O)Nc1cccc(C(=O)OCCF)c1 [Compound 82, 2-fluoroethyl 3-[[[3-(1,1-dimethylethyl)-1-ethyl-1H-pyrazol-5-yl]-carbonyl]amino]benzoate] | 100 | 70 | 100 |  |  |  |  |  |  | 95 |  |
| C#CCNC(=O)c1cccc(NC(=O)c2cc(C(C)(C)C)nn2CC)n1 [Compound 147] | 90 | 5 | 100 |  |  |  |  |  |  | 30 |  |
| CCn1nc(C(C)(C)C)cc1C(=O)Nc1cccc(C(=O)NCC2CC2)c1 [Compound 62] |  |  |  | 10 |  | 10 | 10 | 10 | 10 |  | Barley, Winter plant response rating (winter barley; Postemergence, 250 g ai/ha, scale 0 to 100): 10; Plant response rating, Barley, Winter (winter barley; [8]): 0 |
| CCNC(=O)c1cccc(NC(=O)c2cc(C(C)(C)C)nn2CCF)c1 [Compound 35] |  | 80 |  |  |  |  |  |  |  |  | Plant response rating, Chickweed (chickweed; [1]): 90; Plant response rating, Chickweed (chickweed; postemergence, 16 g ai/ha, scale 0 to 100): 70; Plant response rating, Chickweed (chickweed; [8]): 70 |
